Measurements published in BindingDB's records for doi:10.1021/jm049388p (Merck Research Laboratories, 2004).

Target: Beta-secretase 1 (Homo sapiens, UniProt P56817)
Test: In Vitro BACE1 Activity Assay
Conditions: pH 4.5; 22 °C
Description: The assay was performed using a 96-well format on a HPLC equipped with four 96-well plate holders. Test compounds were preincubated with enzymes for 30min, followed by the addition of substrate. The solution was then incubated for an additional 30 min at room temperature. After the reaction was terminated, the solution was filtered, and the filtrate was subjected to HPLC analysis. The substrate and product were monitored by fluorescence detection (340nm excitation, 440 nm emission).

Sequence of Beta-secretase 1 (P56817 whole entry): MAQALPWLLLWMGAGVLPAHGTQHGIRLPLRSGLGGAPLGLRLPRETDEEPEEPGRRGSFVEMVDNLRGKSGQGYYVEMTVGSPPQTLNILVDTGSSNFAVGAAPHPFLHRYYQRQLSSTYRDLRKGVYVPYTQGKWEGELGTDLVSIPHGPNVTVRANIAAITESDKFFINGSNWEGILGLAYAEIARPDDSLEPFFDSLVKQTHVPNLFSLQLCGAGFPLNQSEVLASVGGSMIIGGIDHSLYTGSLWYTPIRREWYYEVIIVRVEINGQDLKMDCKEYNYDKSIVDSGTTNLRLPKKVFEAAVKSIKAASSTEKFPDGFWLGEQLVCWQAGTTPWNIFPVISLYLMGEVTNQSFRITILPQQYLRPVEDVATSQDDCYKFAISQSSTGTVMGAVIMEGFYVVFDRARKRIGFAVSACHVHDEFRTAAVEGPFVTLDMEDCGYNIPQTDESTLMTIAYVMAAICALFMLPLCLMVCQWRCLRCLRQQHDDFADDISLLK

- IC50: > 100 µM
Structure (SMILES): C[C@H](NC(=O)c1cc(OCC(=O)NCCCCCN)cc(OS(=O)(=O)Cc2ccccc2)c1)c1ccccc1 [3-{[(5-aminopentyl)carbamoyl]methoxy}-5-{[(1S)-1-phenylethyl]carbamoyl}phenyl 1-phenylmethanesulfonate]
